Values of other authors, collected in patent US20080019975A1, “Novel Regimens for Treating Diseases and Disorders” (BioAssets Development Corporation, priority 2006, published 2008).

System: sciatica patients
Settings: IV administration, blinded trial versus placebo saline infusion

infliximab
difference between patients treated with the drug versus placebo saline infusion: failed to show a difference
